Test results as given in publication PMC12992715, “Dual interference with host neuropeptide signaling allows parasitoid wasp to hijack host sugar metabolism” (The EMBO Journal, 2025).
No end group written: not given here.

Key:
[1] = tested on: PxsNPFR; assay: qPCR of PxHK / PxGP upon synthetic sNPF with dsPxsNPFR treatment; type: in vivo, Plutella xylostella; settings: non-parasitised larvae, 3L, 0.5 ng sPxsNPF-1 + dsPxsNPFR; n = 6-7; words
Text: (§1) To analyse gene expression in different tissues, P. xylostella larvae were dissected under the microscope, followed by the collection of the silk gland, fat body, midgut, haemocytes and central nervous system (CNS, brain and ventral nerve cord). Haemocytes were collected on clean Parafilm membranes with capillaries by bleeding the larvae from a cut proleg. To explore gene expression at different instars of parasitised or non-parasitised larvae, non-parasitised larva was isolated individually using RNA-easy Isolation Reagent (Vazyme). Parasitoid larvae were removed before parasitised hosts were isolated. As for the measurement of other experiments, per larva with different treatments was isolated individually using RNA-easy Isolation Reagent according to the manufacturer’s instructions.
The quality and concentrations of total RNAs were estimated by electrophoresis and NanoDrop 2000 spectrophotometer (Thermo Fisher Scientific). […] Relative gene expression levels were calculated using the 2^−ΔΔCt method. […]
DNA fragments of ∼500 bp in size were amplified by PCR. […] Synthetic dsRNA was confirmed by an agarose gel, and the concentration was determined by NanoDrop2000 spectrophotometer (Thermo Scientific). About 500 ng of dsRNA was injected into P. xylostella larvae 72 h post-parasitisation, and the RNAi efficiency was detected 48 h post-injection by qPCR. […]

[2] = tested on: P. xylostella larvae; assay: Circulating haemolymph trehalose after injection of synthetic sNPF peptides, venom, CvBV or teratocyte content; type: in vivo, Plutella xylostella; settings: words
Procedure: (§2) Microinjections were performed under a Stemi 2000C microscope (Zeiss) using glass capillary injection needles and an Eppendorf Femtojet (Eppendorf) with a microcontroller (Narishige). To confirm the function of bovine insulin on hosts, 1 μg bovine insulin (Sigma-Aldrich, I0305000) was injected into the middle 3rd instar P. xylostella larvae. To identify the effect of each parasitic factor on hosts, 0.05 FE CvBV or 0.05 VRE venom was injected into the abdomen of the middle 3rd instar P. xylostella larva (Wang et al, [2018]; Yu et al, [2007]). 1 TE teratocytes’ content was microinjected into the early 4th instar P. xylostella larvae. To confirm the function of each synthetic sNPF peptide, 0.005 ng, 0.05 ng, or 0.5 ng of each peptide was injected into the middle 3rd instar P. xylostella larvae in a volume of 0.1 μl/per larva once per day for 3 consecutive days.
For P. xylostella larvae, 1 μl of haemolymph from the moth was diluted 60-fold in cold PBS and subjected to trehalose determination. The fat body of P. xylostella larvae was homogenised in 200 μl of cold PBS. Half of the homogenate was centrifuged at 13,000 rpm for 15 min, and the supernatant was used for protein content determination by Bradford Reagent (Invitrogen). The rest was heated at 70 °C for 5 min followed by centrifuging at 13,000 rpm for 15 min, and the supernatant was used for glycogen determination.
Trehalose content determination was performed by the anthrone sulfate method. 15 μL of the sample was incubated with 15 μL of 1% H2SO4 at 90 °C for 10 min, then 15 μL of 30% KOH was added and incubated at 90 °C for 10 min. Finally, 300 μl of 0.2% anthrone (Sigma-Aldrich) solution in 96% H2SO4 was added and incubated at 90 °C for 10 min. All reactions were stopped by immersion in ice. To create a trehalose standard curve, 15 μl of trehalose standards (Sigma-Aldrich) were treated similarly as a sample. Finally, 100 μl of each sample was added to a 96-well plate. The absorbance of samples was then measured at 630 nm on a SpectraMax® iD5 Multi-Mode Microplate Reader (Molecular Devices), and the trehalose levels were calculated based on the standard curve and normalised by protein content or sample volume.

[3] = tested on: PxGP, PxHK and PxTPS mRNA; assay: qPCR of PxGP, PxHK, PxTPS in larvae injected with synthetic sNPF, venom, CvBV or teratocytes; type: in vivo, Plutella xylostella; settings: 0.5 ng synthetic peptide, larvae whole body, 4L; n = 7-8; words
Text: as §1
The quality and concentrations of total RNAs were estimated by electrophoresis and NanoDrop 2000 spectrophotometer (Thermo Fisher Scientific). First-strand cDNAs were synthesised using the ReverTra Ace qPCR RT kit (Toyobo) according to the manufacturer’s instructions. Both β-actin (GenBank Acc. No.: AB282645) and β-tubulin (GenBank Acc. No.: EU127912) of P. xylostella were used as internal controls. Primer sequences used for qPCR analysis are shown in Appendix Table S4. qPCR was performed by using THUNDERBIRD® SYBR qPCR Mix (Toyobo) on the CFX Connect real-time system (Bio-Rad). All qPCR assays were performed using four internal replicates and at least three biological replicates under the following conditions: 95 °C for 60 s and 40 cycles of 95 °C for 15 s and 60 °C for 30 s. Relative gene expression levels were calculated using the 2^−ΔΔCt method.
as §2

[4] = tested on: PxHK mRNA in the midgut; assay: Ex vivo midgut incubation with sNPF and signalling inhibitors, PxHK mRNA; type: cell-based, Plutella xylostella; settings: Fig 6F
Procedure: The in vitro incubations of fat body or midgut were performed as previously described with minor modifications (Cheng et al, [2022]). The fat bodies and midguts from non-parasitised middle 4th instar P. xylostella larvae were collected in 0.5 mL of PBS. The collected tissues were then preincubated in culture dishes containing TNM-FH medium (HyClone) for 30 min. sNPF peptides or inhibitors were administered to isolated fat body and midgut in vitro using a modified method from a previous study (Oh et al, [2019]). 1 mM stock solution of pertussis toxin (PTX, Tocris Bioscience) or U73122 (MedChemExpress) was dissolved in DMSO (Sigma-Aldrich) and kept at −80 °C. 0.1 ng/µl PTX or 10 µM U73122 were then mixed with 20 µM sNPF-contained TNM-FH medium. Preincubated tissues were incubated in these mixtures at 25 °C for 1 h, followed by total RNA isolation and qPCR.

[5] = tested on: PxsNPFR; assay: Intracellular Ca2+ mobilisation (Fura-2/AM) in PxsNPFR-expressing HEK293 cells; type: cell-based, Plutella xylostella; settings: 2.5 μM Fura-2/AM, excitation 340/380 nm, 37 °C, result in words
Procedure: To establish a stable HEK293/PxsNPFR cell line, the pcDNA 3.1^(+)/PxsNPFR plasmid was transfected into the HEK293 cells using Lipofectamine 3000 (Invitrogen). Two days later, 800 μg/ml G418 (Sangon Biotech) was added to the culture medium to select cells that stably expressed the receptor. After three weeks, resistant clones were trypsinised in cloning cylinders and transferred to 12-well plastic plates for expansion.
To measure the intracellular calcium flux, the transfected cells HEK293/PxsNPFR were harvested with PBS solution containing 0.02% EDTA, rinsed twice with PBS, and resuspended in Hanks’ balanced salt solution containing 0.025% BSA. Cells were then loaded with 2.5 μM Fura-2/AM (Dojindo) for 30 min at 37 °C and washed twice in Hanks’ balanced saline solution. These cells were stimulated with the indicated concentrations of synthetic sNPF, and Hanks’ solution was used as a negative control. The calcium flux was measured using excitation at 340 nm and 380 nm on a SpectraMax iD5 Multi-Mode Microplate Reader (Molecular Devices) at 37 °C.

Substance: SVRSPSRRLRF-NH2 [sPxsNPF-1, synthetic short neuropeptide F-1 of Plutella xylostella]
- sNPF-induced PxHK expression after PxsNPFR knockdown [1]: abolished following dsPxsNPFR treatment
- effect on haemolymph trehalose level, dose dependence ([2]; 0.005, 0.05, 0.5 ng per larva): dependent on the concentration
- effect on haemolymph trehalose level ([2]; synthetic PxsNPFs, injected into 3M larvae, measured at 4M, high dosage 0.5 ng per larva, n = 4-6): increased the haemolymph trehalose level
- PxGP mRNA expression [3]: remained unaffected
- PxHK mRNA expression [3]: upregulated
- PxTPS mRNA expression [3]: remained unaffected
- PxHK relative expression ([4]; sPxsNPF-1+PTX, Average of 5 replicates, SD 0.30, control DMSO average 1.00): 1.96
- PxHK relative expression ([4]; sPxsNPF-1+PTX, replicate 1): 2.33
- PxHK relative expression ([4]; sPxsNPF-1+PTX, replicate 2): 1.83
- PxHK relative expression ([4]; sPxsNPF-1+PTX, replicate 3): 1.61
- PxHK relative expression ([4]; sPxsNPF-1+PTX, replicate 4): 1.83
- PxHK relative expression ([4]; sPxsNPF-1+PTX, replicate 5): 2.18
- PxHK relative expression ([4]; sPxsNPF-1+U73122, Average of 5 replicates, SD 0.13, control DMSO average 1.00): 0.98
- PxHK relative expression ([4]; sPxsNPF-1+U73122, replicate 1): 1.03
- PxHK relative expression ([4]; sPxsNPF-1+U73122, replicate 2): 0.92
- PxHK relative expression ([4]; sPxsNPF-1+U73122, replicate 3): 1.06
- PxHK relative expression ([4]; sPxsNPF-1+U73122, replicate 4): 0.79
- PxHK relative expression ([4]; sPxsNPF-1+U73122, replicate 5): 1.11
- PxHK relative expression ([4]; sPxsNPF-1 without inhibitor, Average of 5 replicates, SD 0.18, control DMSO average 1.00): 1.73
- PxHK relative expression ([4]; sPxsNPF-1 without inhibitor, replicate 1): 1.68
- PxHK relative expression ([4]; sPxsNPF-1 without inhibitor, replicate 2): 1.93
- PxHK relative expression ([4]; sPxsNPF-1 without inhibitor, replicate 3): 1.52
- PxHK relative expression ([4]; sPxsNPF-1 without inhibitor, replicate 4): 1.60
- PxHK relative expression ([4]; sPxsNPF-1 without inhibitor, replicate 5): 1.89
- intracellular Ca2+ mobilisation [5]: elicited a rapid and transient increase in intracellular Ca^2+ mobilisation
